In patent publication US20180140578A1, “METHODS AND COMPOSITIONS FOR THE DIAGNOSIS AND SELECTIVE TREATMENT OF CANCER” (Board of Regents of the University of Texas System, priority 2016, published 2018):
Read-outs that look alike come from different tables or passages of the source.

Key:
H2073 = experiment: IC50 assay, NSCLC cell lines (Cell Titer Glo, total ATP); assay type: cell-based, human
Procedure: (§1) Cells were plated at ˜15% confluence in a media comprising 5% concentration of fetal bovine serum supplemented with RPMI, which included 2 mM L-Glutamine in a 96 well dish. […] Following three days of incubation in a 5% CO2 incubator, the total ATP in each well was quantified using Cell Titer Glo (Promega). […] The solid lines represent the medians.

H650 = experiment: as above; assay type: cell-based, human; conditions: U2AF1 WT (listed twice)
Procedure: as §1

HCT-116 cells = experiment: Cell viability assay (CellTiter-Glo); assay type: cell-based, human; conditions: Homo sapiens, read-out: concentration required to reduce the viability by 50% (IC50); parental HCT-116 cells
Procedure: The identity for all human cell lines in this study was confirmed by short tandem repeat (STR) analysis. In addition, all human cell lines were confirmed to be mycoplasma free using a PCR based assay (Genatlantis). HCT-116 cells (ATCC) were grown in DMEM medium with 10% FBS and 2 mM L-glutamine. Lenti-X 293T cells (Clontech) were cultured in DMEM medium with 10% FBS and 2 mM L-glutamine. H1155 cells (a gift from Adi Gazdar and John Minna, UT Southwestern) were cultured in RPMI media with 5% FBS and 2 mM L-glutamine. SF9 cells (a gift from Hongtao Yu, UT Southwestern) were cultured in SF900 II serum free media (Life Technologies).
12-point dose responses were performed on 96-well assay plates with cell plating (1500-4000 cell per well) on day 1, compound addition on day 2, and survival measurement on day 5. Compounds were diluted in DMSO before adding to the cells. Final DMSO concentration was 0.5%. Cell survival assay was performed using CellTiter-Glo Luminescent Cell Viability Assay kit (Promega) that measures cellular ATP content. Luminescence was recorded by EnVison multimode plate reader (Perkin Elmer). IC50 was determined with GraphPad Prism using baseline correction (by normalizing to DMSO control), the asymmetric (five parameter) equation and least squares fit.

[1] = tested on: HCT-116 cells expressing wild type or mutant RBM39; experiment: Transient transfection of RBM39 cDNA, crystal violet staining; assay type: cell-based, human; conditions: 2 μM indisulam
Procedure: RBM39 was PCR amplified from U2OS cDNA and cloned into pLVX IRES zsGreen1 (Clontech). Mutagenesis of RBM39 was performed using Q5 site-directed mutagenesis kit (NEB) and primers were designed using the NEBaseChanger web server (nebasechanger.neb.com/). For transient transfection, 0.1 million HCT-116 cells were seeded per well in a 12-well plate on day 1. On day 2, cells were transfected with 1 μg of plasmid (pLVX IRES zsGreen containing wild type or mutant RBM39). […] For crystal violet staining, cells on plates were stained with 0.05% crystal violet, 1% formaldehyde in 1×PBS for 20 min at room temperature, followed by several rinses with deionized water to remove free stain.

[2] = tested on: RBM39 with indisulam-resistant mutations; experiment: RBM39 degradation in resistant cells (western blotting); assay type: cell-based, human; conditions: resistant cells harboring indisulam-resistant mutations
Procedure: Proteins were resolved on SDS-PAGE and transferred to 0.5 μm nitrocellulose membranes. Membranes were blocked in 5% milk TBST for 30 min, and then anti-RBM39 antibodies (HPA001591, Sigma-Aldrich) were added in 5% milk (1:5000) and incubated on a shaker overnight at 4° C. After three 5 min washes with TBST, membranes were incubated with HRP-conjugated goat anti-rabbit secondary antibody (Bio-Rad) for 2 hr at room temperature. After three 5 min washes with TBST, membranes were developed with ECL (enhanced chemiluminescence) substrates.

RBM39-AcGFP = target: T1, RBM39-AcGFP (Homo sapiens, UniProt Q14498+Q66K64); experiment: CRISPR inactivation of DDB1, DDA1, DCAF15; RBM39-AcGFP by flow cytometry; assay type: cell-based; conditions: H1155 RBM39-AcGFP cells
T1 construct: Homology directed repair facilitates tagging of endogenous RBM39 by AID, 3xFLAG, AcGFP, or Nanoluciferase; endogenous in cells; host or cells: H1155 RBM39-AcGFP knock-in cells
Procedure: Two independent guide RNAs targeting DDB1, DDA1, DCAF15 were cloned into PX459. 0.2 million H1155 RBM39-AcGFP cells were transfected with PX459 sgRNA constructs and selected with 2 μg/ml puromycin to enrich for transfected cells. […] Cells were then trypsinized and the expression of RBM39-AGFP was quantified with flow cytometry. H1155 cells transfected with DCAF15 guide RNA were sparsely plated on 10 cm^2 plates and clones were isolated. Genomic DNA sequence flanking the cut site were amplified and sequenced to identify DCAF15−/− clones.

RBM39-3xFLAG = target: T2, RBM39-3xFLAG (Homo sapiens, UniProt Q14498+Q66K64); experiment: In vivo polyubiquitination of RBM39; assay type: cell-based; conditions: DCAF15 co-expressed; 293T cells
T2 construct: expressed in transfected cells; host or cells: 293T
Procedure: cDNAs encoding RBM39-3xFLAG, RBM39 G268V-3xFLAG, and DCAF15-V5 were cloned into the pCDNA3.1+vector. pCMV 8XHis Ub was a gift from William Kaelin (Dana Farber Cancer Institute). 0.4 million 293T cells were seeded per well on 6-well plates and allowed to attach overnight. 250 ng of pCMV 8XHis Ub, 500 ng of pCDNA3-DCAF15-V5, 10 ng of either pCDNA3-RBM39-3xFLAG or pCDNA3-RBM39 G268V-3xFLAG were transfected. […] Cells were lifted from the plates by pipetting, pelleted by centrifugation, and washed once with PBS. Purification of His-Ub tagged proteins was performed as described (5).

RBM39-Nluc = target: T3, RBM39-Nluc (Homo sapiens, UniProt Q14498+Q66K64); experiment: RBM39-Nluc degradation by Nano-Glo luciferase assay; assay type: cell-based; conditions: H1155 RBM39-Nluc cells; read-out: decrease in RBM39-Nluc activity (IC50)
T3 construct: Homology directed repair facilitates tagging of endogenous RBM39 by AID, 3xFLAG, AcGFP, or Nanoluciferase; endogenous in cells; host or cells: H1155 RBM39-Nluc knock-in cells
Procedure: NanoLuc was knocked-in to the 3-prime end of the RBM39 gene using the procedure described above yielding H1155 RBM39-Nluc cells. […] Luminescence was recorded by EnVision multimode plate reader (Perkin Elmer). IC50 was determined with GraphPad Prism using baseline correction (by normalizing to DMSO control), the asymmetric (five parameter) equation and least squares fit.

758 cancer cell lines = conditions: CTD2 AUC values; cited from earlier work

For NS(=O)(=O)c1ccc(S(=O)(=O)Nc2cccc3c(Cl)c[nH]c23)cc1 [Indisulam, indisulam], the IC50 (H2073; Homo sapiens, NCI-H2073, read-out: Indisulam IC50 (log 10) (converted), U2AF1 WT) was 2570 nM, the IC50 (H2073; read-out: Indisulam IC50, U2AF1 WT) was 2570 nM and the “Indisulam IC50 (log 10)” value (H650; H650) was −4.839 (log 10) (M). The IC50 (H650; Homo sapiens, NCI-H650, read-out: Indisulam IC50 (log 10), H650 (converted)) was 13600 nM, the IC50 (H650; Homo sapiens, NCI-H650, read-out: Indisulam IC50, H650) was 13600 nM and the IC50 (H650; read-out: Indisulam IC50, H650) was 14500 nM. The IC50 (HCT-116 cells) was 560 nM, the “cell survival (crystal violet)” value ([1]; mock-transfected or wild type RBM39) was “not indisulam resistant” and the “cell survival (crystal violet)” value ([1]; transient expression of eight different RBM39 mutants) was “conferred resistance”. For the same compound, the RBM39 protein levels [2] was “no effect”, the “RBM39-AcGFP after indisulam treatment” value (RBM39-AcGFP) was “degraded” and the RBM39 ubiquitination (RBM39-3xFLAG) was “increased RBM39 ubiquitination”. The DC50 (RBM39-Nluc) was 360 nM and the “sensitivity to indisulam amongst hematopoietic and lymphoid (HL) lineage cell lines” value (758 cancer cell lines) was “significantly enriched”.
